From patent US9309229B2, “Crystalline forms of 5-chloro-N2-(2-isopropoxy-5-methyl-4-piperidin-4-yl-phenyl)-N4-[2-(propane-2-sulfonyl)-phenyl]-pyrimidine-2, 4-diamine” (Novartis AG, priority 2010, dated 2016)
In brackets after ≈: the same amount, converted by molar mass.

How the values were obtained:
Format in all cases: physicochemical
[1] = Solubility of crystalline form A
[2] = Stability of the form in pH 1 (0.1N HCl) solution; details: pH 1 (0.1N HCl) solution over 72 hour
[3] = Hygroscopicity (moisture uptake at relative humidity)
[4] = pH of 1% suspension in water

In the case of `Cc1cc(Nc2ncc(Cl)c(Nc3ccccc3S(=O)(=O)C(C)C)n2)c(OC(C)C)cc1C1CCNCC1` [Form A, 5-Chloro-N2-(2-isopropoxy-5-methyl-4-piperidin-4-yl-phenyl)-N4-[2-(propane-2-sulfonyl)-phenyl]-pyrimidine-2,4-diamine], the solubility ([1]; in water) is reported as 0.21 mg/mL (≈ 0.376 mM), the solubility ([1]; organic solvent or mixture, in methanol (organic solvent)) is reported as 40 mg/mL (≈ 71.7 mM) and the solubility ([1]; pH 1 solution (0.1N HCl), simulated gastric fluid, in pH 1) is reported as 11 mg/mL (≈ 19.7 mM). The “conversion of form in solution” value [2] was “converted to a hydrochloride salt (non-stoichiometric)”, the hygroscopicity ([3]; 84% relative humidity (RH)) was “relatively non-hygroscopic” and the moisture uptake ([3]; 93% RH) was “minor increase in moisture uptake”. The “pH of 1% suspension in water” value [4] was 6.86.
